Experimental data: the supplement of paper PMC10627819

Assays:
Test in all cases: Bliss interaction score (quartile over a dose matrix) (fitness difference); higher = more antagonism (negative = synergy)
B. subtilis 168 = tested on: B. subtilis 168
How it was run: (§1)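 Combination data were used to infer fitness under each single drug. Fitness is the OD595 at entry into stationary phase divided by the robust mean of the plate's no-drug wells, with a cap of 1. The Bliss score is the observed minus the expected product fitness, summarised by quartiles over technical, biological and donor/recipient replicates.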

S. aureus DSM 20231 = tested on: S. aureus DSM 20231
How it was run: as §1

S. aureus Newman = tested on: S. aureus Newman
How it was run: as §1

S. pneumoniae D39V = tested on: S. pneumoniae D39V
How it was run: as §1
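Further: first quartile when negative (synergy) and third quartile when positive (antagonism).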

With `CO/N=C(\C(=O)N[C@@H]1C(=O)N2C(C(=O)O)=C(COC(C)=O)CS[C@H]12)c1csc(N)n1` [Cefotaxime] + CC[C@H]1OC(=O)[C@H](C)[C@@H](O[C@H]2C[C@@](C)(OC)[C@@H](O)[C@H](C)O2)[C@H](C)[C@@H](O[C@@H]2O[C@H](C)C[C@H](N(C)C)[C@H]2O)[C@](C)(O)C[C@@H](C)C(=O)[C@H](C)[C@@H](O)[C@]1(C)O [Erythromycin] the Bliss interaction score (B. subtilis 168) was 0.0702, the Bliss interaction score (S. aureus DSM 20231) was 0.016 and the Bliss interaction score (S. aureus Newman) was -0.0525. It also gave a Bliss interaction score (S. pneumoniae D39V) of 0.0515.

`CN(C)[C@@H]1C(O)=C(C(N)=O)C(=O)[C@@]2(O)C(O)=C3C(=O)c4c(O)ccc(Cl)c4[C@@](C)(O)[C@H]3C[C@@H]12` [Clortetracycline] + O=C(O[C@@H]1Cc2c(O)cc(O)cc2O[C@@H]1c1cc(O)c(O)c(O)c1)c1cc(O)c(O)c(O)c1 [EGCG] showed a Bliss interaction score (B. subtilis 168) of -0.096, a Bliss interaction score (S. aureus DSM 20231) of 0.114 and a Bliss interaction score (S. aureus Newman) of -0.0462. It also gave a Bliss interaction score (S. pneumoniae D39V) of -0.0892.

Work on `CN(C)[C@@H]1C(O)=C(C(N)=O)C(=O)[C@@]2(O)C(O)=C3C(=O)c4c(O)ccc(Cl)c4[C@@](C)(O)[C@H]3C[C@@H]12` [Clortetracycline] + CCN(CC)CCOC(=O)c1ccc(N)cc1 [Procaine] yielded a Bliss interaction score (B. subtilis 168) of 0.0759, a Bliss interaction score (S. aureus DSM 20231) of -0.0714 and a Bliss interaction score (S. aureus Newman) of 0.0501. It also gave a Bliss interaction score (S. pneumoniae D39V) of -0.0498.

For `C[C@@H]1O[C@@H]1P(=O)(O)O` [Fosfomycin] + CN[C@H](CC(C)C)C(=O)N[C@H]1C(=O)N[C@@H](CC(N)=O)C(=O)N[C@H]2C(=O)N[C@H]3C(=O)N[C@H](C(=O)N[C@H](C(=O)O)c4cc(O)cc(O)c4-c4cc3ccc4O)[C@H](O[C@H]3C[C@](C)(N)[C@@H](O)[C@H](C)O3)c3ccc(c(Cl)c3)Oc3cc2cc(c3O[C@@H]2O[C@H](CO)[C@@H](O)[C@H](O)[C@H]2O[C@H]2C[C@](C)(NCc3ccc(-c4ccc(Cl)cc4)cc3)[C@@H](O)[C@H](C)O2)Oc2ccc(cc2Cl)[C@H]1O [Oritavancin], the Bliss interaction score (B. subtilis 168) was 0.0255, the Bliss interaction score (S. aureus DSM 20231) was 0.0683 and the Bliss interaction score (S. aureus Newman) was 0.0953. It also gave a Bliss interaction score (S. pneumoniae D39V) of -0.0314.

`N#CC(C#N)=NNc1cccc(Cl)c1` [CCCP] + CO/N=C(\C(=O)N[C@@H]1C(=O)N2C(C(=O)[O-])=C(C[N+]3(C)CCCC3)CS[C@H]12)c1csc(N)n1 [Cefepime] was tested, and the Bliss interaction score (B. subtilis 168) was 0.0769, the Bliss interaction score (S. aureus DSM 20231) was 0.1 and the Bliss interaction score (S. aureus Newman) was 0.0498. The Bliss interaction score (S. pneumoniae D39V) was -0.0827.

With `N#CC(C#N)=NNc1cccc(Cl)c1` [CCCP] + CC(C1CCC(C(O1)OC2C(CC(C(C2O)OC3C(C(C(CO3)(C)O)NC)O)N)N)N)NC [Gentamicin] the Bliss interaction score (B. subtilis 168; main component drawn) was 0.259, the Bliss interaction score (S. aureus DSM 20231; main component drawn) was 0.0926 and the Bliss interaction score (S. aureus Newman; main component drawn) was 0.116. The Bliss interaction score (S. pneumoniae D39V; main component drawn) was 0.0882.

`CO/N=C(\C(=O)N[C@@H]1C(=O)N2C(C(=O)O)=C(COC(C)=O)CS[C@H]12)c1csc(N)n1` [Cefotaxime] + CC(=O)O[C@H]1C[C@@]2(C)[C@@H](C[C@@H](O)[C@H]3[C@@]4(C)CC[C@@H](O)[C@@H](C)[C@@H]4CC[C@@]32C)/C1=C(\CCC=C(C)C)C(=O)O [Fusidic acid] gave a Bliss interaction score (B. subtilis 168) of 0.0613, a Bliss interaction score (S. aureus DSM 20231) of 0.0189 and a Bliss interaction score (S. aureus Newman) of 0.0487. The Bliss interaction score (S. pneumoniae D39V) was 0.11.

With `COc1cccc2c1C(=O)c1c(O)c3c(c(O)c1C2=O)C[C@@](O)(C(=O)CO)C[C@@H]3O[C@H]1C[C@H](N)[C@H](O)[C@H](C)O1` [Doxorubicin] + CC[C@H]1OC(=O)[C@H](C)C(=O)[C@H](C)[C@@H](O[C@@H]2O[C@H](C)C[C@H](N(C)C)[C@H]2O)[C@](C)(OC)C[C@@H](C)C(=O)[C@H](C)[C@H]2N(CCCCn3cnc(-c4cccnc4)c3)C(=O)O[C@]12C [Telithromycin] the Bliss interaction score (B. subtilis 168) was 0.0872, the Bliss interaction score (S. aureus DSM 20231) was -0.0292 and the Bliss interaction score (S. aureus Newman) was 0.0489. It also gave a Bliss interaction score (S. pneumoniae D39V) of -0.0361.

For `CC1(C)S[C@@H]2[C@H](NC(=O)Cc3ccccc3)C(=O)N2[C@H]1C(=O)O` [PenicillinG] + CC[C@H]1OC(=O)[C@H](C)C(=O)[C@H](C)[C@@H](O[C@@H]2O[C@H](C)C[C@H](N(C)C)[C@H]2O)[C@](C)(OC)C[C@@H](C)C(=O)[C@H](C)[C@H]2N(CCCCn3cnc(-c4cccnc4)c3)C(=O)O[C@]12C [Telithromycin], the Bliss interaction score (B. subtilis 168) was 0.0511, the Bliss interaction score (S. aureus DSM 20231) was 0.0277 and the Bliss interaction score (S. aureus Newman) was -0.0465. The Bliss interaction score (S. pneumoniae D39V) was 0.0452.

For `CC1(C)S[C@@H]2[C@H](NC(=O)Cc3ccccc3)C(=O)N2[C@H]1C(=O)O` [PenicillinG] + CCCCCCCCCC(=O)N[C@@H]1[C@H]([C@@H]([C@H](O[C@H]1OC2=C3C=C4C=C2OC5=C(C=C(C=C5)[C@H]([C@H]6C(=O)N[C@@H](C7=C(C(=CC(=C7)O)OC8[C@H]([C@H]([C@@H]([C@H](O8)CO)O)O)O)C9=C(C=CC(=C9)[C@H](C(=O)N6)NC(=O)[C@@H]4NC(=O)[C@@H]1C2=CC(=CC(=C2)OC2=C(C=CC(=C2)[C@H](C(=O)N[C@H](CC2=CC(=C(O3)C=C2)Cl)C(=O)N1)N)O)O)O)C(=O)O)O[C@H]1[C@@H]([C@H]([C@@H]([C@H](O1)CO)O)O)NC(=O)C)Cl)CO)O)O [Teicoplanin], the Bliss interaction score (B. subtilis 168; main component drawn) was -0.176, the Bliss interaction score (S. aureus DSM 20231; main component drawn) was -0.0396 and the Bliss interaction score (S. aureus Newman; main component drawn) was 0.0744. It also gave a Bliss interaction score (S. pneumoniae D39V; main component drawn) of -0.0521.

In the case of `CC(=O)Oc1ccccc1C(=O)O` [Acetylsalicylicacid] + Oc1cc(Cl)ccc1Oc1ccc(Cl)cc1Cl [Triclosan], the Bliss interaction score (B. subtilis 168) is reported as 0.129, the Bliss interaction score (S. aureus DSM 20231) is reported as -0.114 and the Bliss interaction score (S. aureus Newman) is reported as -0.0273. For the same molecule, the Bliss interaction score (S. pneumoniae D39V) was -0.0513.

`CC(=O)Oc1ccccc1C(=O)O` [Acetylsalicylicacid] + O=C(O)[C@H]1/C(=C/CO)O[C@@H]2CC(=O)N21 [Clavulanic] showed a Bliss interaction score (B. subtilis 168) of 0.0831, a Bliss interaction score (S. aureus DSM 20231) of -0.553 and a Bliss interaction score (S. aureus Newman) of 0.0986. It also gave a Bliss interaction score (S. pneumoniae D39V) of 0.0345.

Molecule `CN(C)[C@@H]1C(O)=C(C(N)=O)C(=O)[C@@]2(O)C(O)=C3C(=O)c4c(O)ccc(Cl)c4[C@@](C)(O)[C@H]3C[C@@H]12` [Clortetracycline] + Cc1onc(-c2ccccc2)c1C(=O)N[C@@H]1C(=O)N2[C@@H]1SC(C)(C)[C@@H]2C(=O)O [Oxacillin] has a Bliss interaction score (B. subtilis 168) of 0.0896, a Bliss interaction score (S. aureus DSM 20231) of 0.0471 and a Bliss interaction score (S. aureus Newman) of 0.0386. For the same molecule, the Bliss interaction score (S. pneumoniae D39V) was 0.125.

Work on `CC1(C)S[C@@H]2[C@H](NC(=O)Cc3ccccc3)C(=O)N2[C@H]1C(=O)O` [PenicillinG] + CN(C)c1cc(NC(=O)CNC(C)(C)C)c(O)c2c1C[C@H]1C[C@H]3[C@H](N(C)C)C(O)=C(C(N)=O)C(=O)[C@@]3(O)C(O)=C1C2=O [Tigecycline] yielded a Bliss interaction score (B. subtilis 168) of 0.0408, a Bliss interaction score (S. aureus DSM 20231) of -0.0277 and a Bliss interaction score (S. aureus Newman) of 0.0515. For the same molecule, the Bliss interaction score (S. pneumoniae D39V) was -0.103.

`CO/N=C(\C(=O)N[C@@H]1C(=O)N2C(C(=O)O)=C(COC(N)=O)CS[C@H]12)c1ccco1` [Cefuroxime] + O=C(N[C@H](CO)[C@H](O)c1ccc([N+](=O)[O-])cc1)C(Cl)Cl [Chloramphenicol] gave a Bliss interaction score (B. subtilis 168) of 0.162, a Bliss interaction score (S. aureus DSM 20231) of -0.341 and a Bliss interaction score (S. aureus Newman) of -0.0407. The Bliss interaction score (S. pneumoniae D39V) was -0.0245.

`C[C@H]1c2cccc(O)c2C(=O)C2=C(O)[C@]3(O)C(=O)C(C(N)=O)=C(O)[C@@H](N(C)C)[C@@H]3[C@@H](O)[C@@H]21` [Doxycycline] + CN[C@H](CC(C)C)C(=O)N[C@H]1C(=O)N[C@@H](CC(N)=O)C(=O)N[C@H]2C(=O)N[C@H]3C(=O)N[C@H](C(=O)N[C@H](C(=O)O)c4cc(O)cc(O)c4-c4cc3ccc4O)[C@H](O[C@H]3C[C@](C)(N)[C@@H](O)[C@H](C)O3)c3ccc(c(Cl)c3)Oc3cc2cc(c3O[C@@H]2O[C@H](CO)[C@@H](O)[C@H](O)[C@H]2O[C@H]2C[C@](C)(NCc3ccc(-c4ccc(Cl)cc4)cc3)[C@@H](O)[C@H](C)O2)Oc2ccc(cc2Cl)[C@H]1O [Oritavancin] gave a Bliss interaction score (B. subtilis 168) of 0.0303, a Bliss interaction score (S. aureus DSM 20231) of -0.0271 and a Bliss interaction score (S. aureus Newman) of 0.0145. For the same molecule, the Bliss interaction score (S. pneumoniae D39V) was 0.0456.
